What all share (test): Post-emergence efficacy (glasshouse, spray application)
What all share (assay type): in vivo

The test system of assay [1] is Ipomoea hederacea (IPOHE). The settings on record: 312 h, read-out: Control of weed species after post-emergence application, IPOHE. The protocol: (§1) Seeds of a variety of test species were sown in standard soil in pots. After cultivation for 14 days (post-emergence) under controlled conditions in a glasshouse (at 24/16° C., day/night; 14 hours light; 65 humidity), the plants were sprayed with an aqueous spray solution derived from the dissolution of the technical active ingredient formula (I) in a small amount of acetone and a special solvent and emulsifier mixture referred to as IF50 (11.12% Emulsogen EL360 TM+44.44% N-methylpyrrolidone+44.44% Dowanol DPM glycol ether), to create a 50 g/l solution which was then diluted to required concentration using a solution of 0.25% or 1% Empicol ESC70 (Sodium lauryl ether sulphate)+1% ammonium sulphate in water as diluent.
(§2) The test plants were then grown in a glasshouse under controlled conditions (at 24/16° C., day/night; 14 hours light; 65% humidity) and watered twice daily. After 13 days the test was evaluated (100=total damage to plant; 0=no damage to plant).
(§3) Ipomoea hederacea (IPOHE), Euphorbia heterophylla (EPHHL), Chenopodium album (CHEAL), Amaranthus palmeri (AMAPA), Lolium perenne (LOLPE), Digitaria sanguinalis (DIGSA), Eleusine indica (ELEIN), Echinochloa crus-galli (ECHCG), Setaria faberi (SETFA)

Assay [2] concerns Amaranthus palmeri (AMAPA). The settings on record: 312 h, read-out: Control of weed species after post-emergence application, AMAPA. The protocol: as §1, §2, §3
The test system of the next assay is Setaria faberi (SETFA). The settings on record: 312 h, read-out: Control of weed species after post-emergence application, SETFA. The procedure: as §1, §2, §3
Assay [3] concerns Euphorbia heterophylla (EPHHL). The settings on record: 312 h, read-out: Control of weed species after post-emergence application, EPHHL. The procedure: as §1, §2, §3
The test system of the next assay is Eleusine indica (ELEIN). The settings on record: 312 h, read-out: Control of weed species after post-emergence application, ELEIN. The procedure:
as §1, §2, §3

Assay [4] has as its system Chenopodium album (CHEAL). The settings on record: 312 h, read-out: Control of weed species after post-emergence application, CHEAL. The procedure: as §1, §2, §3
Assay [5] has as its system Echinochloa crus-galli (ECHCG). The settings on record: 312 h, read-out: Control of weed species after post-emergence application, ECHCG. The protocol: as §1, §2, §3
The test system of a further assay is Lolium perenne (LOLPE). The settings on record: 312 h, read-out: Control of weed species after post-emergence application, LOLPE. The protocol:
as §1, §2, §3

Assay [6] relates to Digitaria sanguinalis (DIGSA). The settings on record: 312 h, read-out: Control of weed species after post-emergence application, DIGSA. The procedure: as §1, §2, §3
Where [7] appears, read: Application rate 500 g/Ha, evaluated after 13 days, 100=total damage to plant, 0=no damage to plant.

Data on twelve compounds can be found in US20220104492A1, “PYRIDAZINIUM COMPOUNDS FOR USE IN A METHOD OF CONTROLLING UNWANTED PLANT GROWTH” (SYNGENTA CROP PROTECTION AG, priority 2019, published 2022).

Like-named read-outs stand apart in the source and are kept apart here.

As for `O=C(O)CNC(=O)C[n+]1ccc(-c2ncccn2)cn1` [Compound A1, 2-[[2-(4-pyrimidin-2-ylpyridazin-1-ium-1-yl)acetyl]amino]acetic acid 2,2,2-trifluoroacetate], the pest or weed control at 500 g/ha in [1] amounted to 100%; in assay [2], 100%; in the assay with Setaria faberi (SETFA), 60%; in assay [3] it was 90%; in the assay with Eleusine indica (ELEIN), 90%; in assay [4], 100%. Moreover, the pest or weed control at 500 g/ha in [5] turned out to be 70%; in the assay on Lolium perenne (LOLPE) it was 70%; in assay [6] it was 90%.

For the compound `CCC(NC(=O)C[n+]1ccc(-c2ncccn2)cn1)C(=O)O` (stereo not shown) [Compound A2], the pest or weed control at 500 g/ha in assay [1] (setting [7]) was 100%; in assay [2] (setting [7]) it was 100%; with Setaria faberi (SETFA) (setting [7]), 40%; in assay [3] (setting [7]) it was 100%; with Eleusine indica (ELEIN) (setting [7]) it was 70%; in [4] (setting [7]), 90%. The pest or weed control at 500 g/ha in [5] (setting [7]) was 90%; with Lolium perenne (LOLPE) (setting [7]) it was 40%; in [6] (setting [7]), 80%.

Turning to `CCCC(NC(=O)C[n+]1ccc(-c2ncccn2)cn1)C(=O)O` (stereo not shown) [Compound A3], the pest or weed control at 500 g/ha in [1] (setting [7]) came to 70%; in assay [2] (setting [7]), 100%; with Setaria faberi (SETFA) (setting [7]), 70%; in [3] (setting [7]), 100%; in the assay on Eleusine indica (ELEIN) (setting [7]), 100%; in assay [4] (setting [7]), 100%. Moreover, the pest or weed control at 500 g/ha is 90% in assay [5] (setting [7]), 50% with Lolium perenne (LOLPE) (setting [7]) and 90% in [6] (setting [7]).

On to `O=C(O)COCC[n+]1ccc(-c2ncccn2)cn1` [Compound A4], for which the pest or weed control at 500 g/ha stood at 90% in assay [1] (setting [7]); 100% in assay [2] (setting [7]); 100% in the assay with Setaria faberi (SETFA) (setting [7]); 100% in [3] (setting [7]); 100% in the assay on Eleusine indica (ELEIN) (setting [7]); 100% in [4] (setting [7]). Besides, the results for the pest or weed control at 500 g/ha (in assay [5] (setting [7]); in the assay with Lolium perenne (LOLPE) (setting [7]); in [6] (setting [7])) were 90%, 80% and 90%, respectively.

With `CCC(C)C(NC(=O)C[n+]1ccc(-c2ncccn2)cn1)C(=O)O` (stereo not shown) [Compound A5], the pest or weed control at 500 g/ha was 60% in assay [1] (setting [7]); 100% in assay [2] (setting [7]); 10% in the assay with Setaria faberi (SETFA) (setting [7]); 100% in [3] (setting [7]); 10% in the assay with Eleusine indica (ELEIN) (setting [7]); 100% in assay [4] (setting [7]). The figures for the pest or weed control at 500 g/ha (in [5] (setting [7]); in the assay on Lolium perenne (LOLPE) (setting [7]); in assay [6] (setting [7])) were 30%, 0% and 10%, respectively.

`CC(C)CC(NC(=O)C[n+]1ccc(-c2ncccn2)cn1)C(=O)O` (stereo not shown) [Compound A6]: the pest or weed control at 500 g/ha in assay [1] (setting [7]) amounted to 90%; in [2] (setting [7]), 100%; in the assay on Setaria faberi (SETFA) (setting [7]) it was 50%; in [3] (setting [7]) it was 100%; in the assay with Eleusine indica (ELEIN) (setting [7]) it was 90%; in assay [4] (setting [7]) it was 100%. Also, the pest or weed control at 500 g/ha was determined as 70% in [5] (setting [7]), 40% in the assay with Lolium perenne (LOLPE) (setting [7]) and 50% in assay [6] (setting [7]).

Consider `NC(=O)CC(NC(=O)C[n+]1ccc(-c2ncccn2)cn1)C(=O)O` (stereo not shown) [Compound A7], for which the pest or weed control at 500 g/ha stood at 0% in [1] (setting [7]); 10% in assay [2] (setting [7]); 40% in the assay with Setaria faberi (SETFA) (setting [7]); 30% in [3] (setting [7]); 30% in the assay with Eleusine indica (ELEIN) (setting [7]); 60% in assay [4] (setting [7]). The pest or weed control at 500 g/ha came out at 30% in assay [5] (setting [7]), 0% in the assay with Lolium perenne (LOLPE) (setting [7]) and 40% in assay [6] (setting [7]).

For the compound `CN(CC(=O)O)C(=O)C[n+]1ccc(-c2ncccn2)cn1` [Compound A8, 2-[methyl-[2-(4-pyrimidin-2-ylpyridazin-1-ium-1-yl)acetyl]amino]acetic acid 2,2,2-trifluoroacetate], the pest or weed control at 500 g/ha came out at 60% in assay [1] (setting [7]); 100% in assay [2] (setting [7]); 70% in the assay with Setaria faberi (SETFA) (setting [7]); 100% in assay [3] (setting [7]); 90% in the assay with Eleusine indica (ELEIN) (setting [7]); 100% in assay [4] (setting [7]). For the same compound, the pest or weed control at 500 g/ha amounted to 80% in [5] (setting [7]), 40% in the assay with Lolium perenne (LOLPE) (setting [7]) and 70% in assay [6] (setting [7]).

Take `O=C(O)CCC(=O)C[n+]1ccc(-c2ncccn2)cn1` [Compound A9, 4-oxo-5-(4-pyrimidin-2-ylpyridazin-1-ium-1-yl)pentanoic acid chloride]: the pest or weed control at 500 g/ha in assay [1] (setting [7]) was determined as 40%; in [2] (setting [7]) it was 70%; in the assay with Setaria faberi (SETFA) (setting [7]), 30%; in assay [3] (setting [7]) it was 70%; in the assay on Eleusine indica (ELEIN) (setting [7]), 70%; in [4] (setting [7]), 70%. The pest or weed control at 500 g/ha in assay [5] (setting [7]) is 70%; with Lolium perenne (LOLPE) (setting [7]), 0%; in assay [6] (setting [7]), 50%.

With `O=C(O)CNC(=O)CNC(=O)C[n+]1ccc(-c2ncccn2)cn1` [Compound A10], the pest or weed control at 500 g/ha in assay [1] (setting [7]) worked out at 40%; in assay [2] (setting [7]) it was 90%; in the assay on Setaria faberi (SETFA) (setting [7]) it was 80%; in assay [3] (setting [7]) it was 90%; in the assay with Eleusine indica (ELEIN) (setting [7]), 90%; in [4] (setting [7]), 60%. The pest or weed control at 500 g/ha in [5] (setting [7]) came to 70%; in the assay with Lolium perenne (LOLPE) (setting [7]), 40%; in assay [6] (setting [7]), 80%.

In the case of `OCCOCC[n+]1ccc(-c2ncccn2)cn1` [Compound A17, 2-[2-(4-pyrimidin-2-ylpyridazin-1-ium-1-yl)ethoxy]ethanol 2,2,2-trifluoroacetate], the pest or weed control at 500 g/ha in [1] (setting [7]) is 0%; in assay [2] (setting [7]), 30%; in the assay on Setaria faberi (SETFA) (setting [7]) it was 20%; in [3] (setting [7]) it was 30%; in the assay with Eleusine indica (ELEIN) (setting [7]) it was 20%; in [4] (setting [7]), 50%. For the same compound, the pest or weed control at 500 g/ha in [5] (setting [7]) came out at 30%; in the assay with Lolium perenne (LOLPE) (setting [7]), 10%.

With `O=C(O)CNS(=O)(=O)CC[n+]1ccc(-c2ncccn2)cn1` [Compound A29, 2-[2-(4-pyrimidin-2-ylpyridazin-1-ium-1-yl)ethylsulfonylamino]-acetic acid 2,2,2-trifluoroacetate], the pest or weed control at 500 g/ha in assay [1] (setting [7]) came out at 40%; in assay [2] (setting [7]), 100%; with Setaria faberi (SETFA) (setting [7]), 60%; in [3] (setting [7]) it was 90%; in the assay on Eleusine indica (ELEIN) (setting [7]), 70%; in [4] (setting [7]), 70%. Moreover, the pest or weed control at 500 g/ha (in assay [5] (setting [7]); in the assay on Lolium perenne (LOLPE) (setting [7])) was 50% throughout.
